pKi: −log10 of the molar value. The source made the active and inactive calls. The calls are words filed in the database; no cut-off is given here.
Assays:
[1] = target: Neuronal acetylcholine receptor; alpha4/beta2 (Rattus norvegicus, UniProt P09483+P12390); assay: Displacement of [3H]cystisine from nicotinic alpha-4-beta-2 receptor in rat brain; type: tissue-based
[2] = target: Muscarinic acetylcholine receptor; assay: Displacement of [3H]oxotremorine from muscarinic receptor in rat brain; type: tissue-based
[3] = target: Neuronal acetylcholine receptor subunit alpha-7 (Rattus norvegicus, UniProt Q05941); assay: Displacement of [3H]alpha-bungaro-toxine from nicotinic alpha-7 receptor in rat brain; type: tissue-based
[4] = organism: Rattus norvegicus; assay: Increase in cortical acetyl choline levels in rat by microdialysis; type: functional, organism-based
[5] = organism: Rattus norvegicus; assay: Effect on memory in Wistar rat by social recognition test; type: functional, organism-based

Chain of Neuronal acetylcholine receptor; alpha4/beta2 (P09483 whole entry): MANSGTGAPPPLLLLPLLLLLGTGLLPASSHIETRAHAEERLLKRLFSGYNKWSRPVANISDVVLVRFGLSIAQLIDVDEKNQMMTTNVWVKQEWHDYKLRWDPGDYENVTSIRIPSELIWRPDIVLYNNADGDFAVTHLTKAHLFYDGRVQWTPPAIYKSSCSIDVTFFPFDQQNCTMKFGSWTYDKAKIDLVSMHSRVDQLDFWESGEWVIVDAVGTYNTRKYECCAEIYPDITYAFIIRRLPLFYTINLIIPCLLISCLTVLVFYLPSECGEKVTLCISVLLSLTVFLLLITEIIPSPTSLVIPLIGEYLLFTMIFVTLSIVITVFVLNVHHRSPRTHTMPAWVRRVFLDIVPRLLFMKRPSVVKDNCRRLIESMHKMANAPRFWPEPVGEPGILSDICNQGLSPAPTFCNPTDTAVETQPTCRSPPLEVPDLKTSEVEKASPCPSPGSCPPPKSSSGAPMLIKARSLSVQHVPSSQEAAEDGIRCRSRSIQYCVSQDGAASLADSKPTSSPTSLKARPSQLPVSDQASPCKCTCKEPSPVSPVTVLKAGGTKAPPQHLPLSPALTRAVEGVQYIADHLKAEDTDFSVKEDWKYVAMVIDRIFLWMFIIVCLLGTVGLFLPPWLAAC
Chain of Neuronal acetylcholine receptor; alpha4/beta2 (P12390 whole entry): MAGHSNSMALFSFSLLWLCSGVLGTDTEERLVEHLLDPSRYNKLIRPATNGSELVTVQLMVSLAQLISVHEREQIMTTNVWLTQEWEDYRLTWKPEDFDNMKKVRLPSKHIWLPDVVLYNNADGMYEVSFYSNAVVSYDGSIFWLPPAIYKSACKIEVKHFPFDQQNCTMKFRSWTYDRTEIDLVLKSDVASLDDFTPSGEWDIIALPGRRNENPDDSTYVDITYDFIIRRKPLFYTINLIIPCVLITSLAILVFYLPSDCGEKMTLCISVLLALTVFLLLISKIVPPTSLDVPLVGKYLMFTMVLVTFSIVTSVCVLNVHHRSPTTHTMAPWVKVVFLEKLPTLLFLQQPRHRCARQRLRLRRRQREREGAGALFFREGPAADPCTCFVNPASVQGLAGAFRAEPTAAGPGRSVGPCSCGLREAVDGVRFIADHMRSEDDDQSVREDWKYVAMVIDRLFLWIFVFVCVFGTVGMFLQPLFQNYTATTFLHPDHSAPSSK
Chain of Neuronal acetylcholine receptor subunit alpha-7 (Q05941 whole entry): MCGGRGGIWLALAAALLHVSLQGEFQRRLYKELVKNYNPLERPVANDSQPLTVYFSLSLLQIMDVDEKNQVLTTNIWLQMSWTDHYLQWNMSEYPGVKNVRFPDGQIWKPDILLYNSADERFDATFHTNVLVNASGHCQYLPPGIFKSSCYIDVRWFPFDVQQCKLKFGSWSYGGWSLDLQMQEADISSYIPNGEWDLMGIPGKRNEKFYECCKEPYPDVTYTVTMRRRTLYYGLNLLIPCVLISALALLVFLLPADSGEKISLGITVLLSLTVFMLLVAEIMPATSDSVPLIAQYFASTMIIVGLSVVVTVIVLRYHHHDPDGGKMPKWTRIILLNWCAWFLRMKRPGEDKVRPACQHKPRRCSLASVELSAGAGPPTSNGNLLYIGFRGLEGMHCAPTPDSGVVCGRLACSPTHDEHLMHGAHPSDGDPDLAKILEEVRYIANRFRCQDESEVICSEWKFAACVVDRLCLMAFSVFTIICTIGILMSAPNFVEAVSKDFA

CN(C)C1(COc2ccc(Cl)nc2)CC1
pKi [1]: 6.52

C#Cc1cncc(OCC2(NC)CC2)c1.Cl
Ki [2]: > 10 µM | pKi [3]: < 5.00 | pKi [1]: 8.18

CNC1(COc2cccnc2)CC1.Cl
Ki [2]: > 10 µM | pKi [3]: < 5.00 | pKi [1]: 8.52 | Activity [4]: Dose-dependent effect | Activity [5]: Active

CN(C)C1(COc2cncc(Br)c2)CC1
pKi [1]: 6.56

CNC1(COc2ccc(C)nc2)CC1.Cl
Ki [2]: > 10 µM | pKi [3]: < 5.00 | pKi [1]: 7.40

CCNC1(COc2cccnc2)CC1
Ki [2]: > 10 µM | pKi [3]: < 5.00 | pKi [1]: 6.00

CN(C)C1(COc2cccnc2)CC1.Cl
Ki [2]: > 10 µM | pKi [3]: < 5.00 | pKi [1]: 7.02

CNC1(CCc2cccnc2)CC1.Cl
Ki [2]: > 10 µM | pKi [3]: 5.72 | pKi [1]: 6.60

CNC1(COc2ccc(Cl)nc2)CC1.Cl
Ki [2]: > 10 µM | pKi [3]: < 5.00 | pKi [1]: 7.89

Cc1ccc(OCC2(N)CC2)cn1
pKi [1]: 6.58

C=Cc1cncc(OCC2(NC)CC2)c1.Cl
Ki [2]: > 10 µM | pKi [3]: < 5.00 | pKi [1]: 7.15

CNC1(CCOc2cccnc2)CC1.O=C(O)/C=C/C(=O)O
Ki [2]: > 10 µM | pKi [3]: < 5.00 | pKi [1]: 6.96

NC1(COc2ccc(Cl)nc2)CC1
pKi [1]: 7.01

Cc1ccc(OCC2(N(C)C)CC2)cn1
pKi [1]: 5.96

CNC1(COc2ccc(Br)nc2)CC1.Cl
Ki [2]: > 10 µM | pKi [3]: < 5.00 | pKi [1]: 7.41

CN(C)C1(COc2cnc(Cl)c(Br)c2)CC1
pKi [1]: 6.96

CNC1(/C=C\COc2cccnc2)CC1.Cl
Ki [2]: > 10 µM | pKi [3]: < 5.00 | pKi [1]: 5.64

CNC1(/C=C/c2cccnc2)CC1.O=C(O)/C=C/C(=O)O
Ki [2]: > 10 µM | pKi [3]: 5.46 | pKi [1]: 5.94

CNC1(/C=C/COc2cccnc2)CC1.Cl
Ki [2]: > 10 µM | pKi [3]: < 5.00 | pKi [1]: 5.96

c1cncc(OCC2(N3CCCC3)CC2)c1
Ki [2]: > 10 µM | pKi [3]: < 5.00 | pKi [1]: 5.79

CNC1(CCCOc2cccnc2)CC1.O=C(O)/C=C/C(=O)O
Ki [2]: > 10 µM | pKi [3]: < 5.00 | pKi [1]: 5.61

CNC1(COc2cncc(Br)c2)CC1.Cl
Ki [2]: > 10 µM | pKi [3]: < 5.00 | pKi [1]: 8.97

CN(C)C1(COc2ccc(Br)nc2)CC1
pKi [1]: 6.40

Cl.NC1(COc2cccnc2)CC1
Ki [2]: > 10 µM | pKi [3]: < 5.00 | pKi [1]: 7.47

CNC1(COc2cnc(Cl)c(Br)c2)CC1.Cl
Ki [2]: > 10 µM | pKi [3]: < 5.00 | pKi [1]: 8.27

Reference: ChEMBL document CHEMBL1143114, “Preparation and affinity profile of novel nicotinic ligands” (Bioorg Med Chem Lett, 2008)
